The subject of series [1] is Raw 264.7 cells infected with H37Rv-GFP. Put plainly: microbe, parasite or virus in culture. In kind it is cell-based, M. tuberculosis. As to conditions: for MIC50: Mycobacterium tuberculosis, H37RV, 120 h, read-out: QIM (MIC50).
Series [2] relates to M. tuberculosis H37Rv expressing the green fluorescent protein (H37Rv-GFP). As to the kind of experiment: microbe, parasite or virus in culture. The conditions noted are these: for MIC50: Mycobacterium tuberculosis, H37RV, 120 h, read-out: QUM (MIC50). In kind it is cell-based.

Values after ≈ are worked out from the molar mass of the structure shown. Where only a bound is given, the exact number is not on record here.

Molecule `Cn1cnc2ccc(NC(=O)c3cc4sc(N5CCOCC5)nc4s3)cc21` [Compound 117] yielded a melting point of 314 °C. Besides, the MIC50 in series [1] is > 20 µM. For the same molecule, the MIC50 in series [2] is > 20 µM.
The molecule `COc1ccc(NC(=O)c2cc3sc(N4CCCC(O)C4)nc3s2)cc1` (stereo not drawn) [Compound 96] registered a melting point of 238 °C. Also, the MIC50 in series [1] was < 1 µM. The MIC50 in series [2] is < 1 µM.
The molecule `COc1ccc(NC(=O)c2cc3sc(NC4CCCC4)nc3s2)cc1` [Compound 90] showed a melting point of 239.3 °C. Also, the MIC50 in series [1] is < 1 µM. In series [2], the MIC50 is < 1 µM.
As for `CN(C)C(=O)C1CCN(c2nc3sc(C(=O)Nc4ccc5oc(CCc6ccc(F)cc6)nc5c4)cc3s2)CC1` [Compound 197], the melting point was 259 °C. Moreover, the MIC50 in series [1] is < 1 µM. Also, the MIC50 in series [2] was > 20 µM.
The matching figures for `Cc1nc2cc(NC(=O)c3cc4sc(N5CCC(C(=O)N(C)C)CC5)nc4s3)ccc2o1` [Compound 138]: 284.2 °C, < 1 µM and < 1 µM.
With `O=C(Nc1ccc2[nH]ncc2c1)c1cc2sc(N3CCOCC3)nc2s1` [Compound 89], the melting point turned out to be 329.8 °C. The MIC50 in series [1] is > 20 µM. Further, in series [2], the MIC50 was > 20 µM.
`O=C(c1cc2sc(N3CCOCC3)nc2s1)N1CCC(Cc2ccc(Cl)cc2)CC1` [Compound 173] yielded a melting point of 167.2 °C. Also, the MIC50 in series [1] is > 20 µM. Also, in series [2], the MIC50 is > 20 µM.
Consider `CN(C(=O)c1cc2nc(N3CCCCC3)sc2s1)c1ccc(F)c(F)c1` [Compound 20], for which the melting point amounted to 170.1 °C. For the same molecule, the MIC50 in series [1] was > 20 µM. Besides, the MIC50 in series [2] lay within 1 to 20 µM (≈ 0.393 to 7.87 µg/mL).
Regarding `Cc1nc2cc(NC(=O)c3cc4sc(N5CCC(CO)CC5)nc4s3)ccc2o1` [Compound 144], the melting point was found to be 196.4 °C. Further, in series [1], the MIC50 was < 1 µM. Also, the MIC50 in series [2] was < 1 µM.
Consider `COc1ccc(NC(=O)c2cc3sc(N4CCCC4)nc3s2)cc1` [Compound 78], for which the melting point was 274.4 °C. In addition, in series [1], the MIC50 was < 1 µM. Besides, the MIC50 in series [2] is < 1 µM.
In the case of `Cc1nc2ccc(NC(=O)c3cc4sc(N5CCOCC5)nc4s3)cc2o1` [Compound 85], the melting point stood at 273.6 °C. Also, the MIC50 in series [1] was < 1 µM. Besides, the MIC50 in series [2] is < 1 µM.
Regarding `O=C(Nc1ccc(N2CCC(c3ccc(Cl)cc3)CC2)cc1)c1cc2sc(N3CCOCC3)nc2s1` [Compound 190], the melting point was determined as 281.1 °C. Moreover, the MIC50 in series [1] is > 20 µM. In addition, the MIC50 in series [2] is > 20 µM.
For `COc1ccc(NC(=O)c2cc3sc(N4CCCCC4)nc3s2)cn1` [Compound 47], the melting point was determined as 232.4 °C. In addition, the MIC50 in series [1] is < 1 µM. Also, in series [2], the MIC50 is < 1 µM.
The molecule `Cc1nc2cc(NC(=O)c3cc4sc(N5CCC(C(=O)N(C)C)C5)nc4s3)ccc2o1` (stereo not drawn) [Compound 192] returned a melting point of 274 °C. The MIC50 in series [1] is 1 to 20 µM (≈ 0.456 to 9.11 µg/mL). In addition, the MIC50 in series [2] fell in the range of 1 to 20 µM (≈ 0.456 to 9.11 µg/mL).
For the molecule `Cc1nn(C)cc1-c1ccc(NC(=O)c2cc3sc(N4CCOCC4)nc3s2)cc1` [Compound 167], the melting point was determined as 245 °C. The MIC50 in series [1] is < 1 µM. In series [2], the MIC50 was in the range of 1 to 20 µM (≈ 0.44 to 8.79 µg/mL).
`O=C(Nc1ccn(-c2ccccc2)n1)c1cc2sc(N3CCOCC3)nc2s1` [Compound 165] yielded a melting point of 257.8 °C. Also, in series [1], the MIC50 lay in the range of 1 to 20 µM (≈ 0.412 to 8.23 µg/mL). Also, the MIC50 in series [2] is > 20 µM.
`COCn1c(N2CCOCC2)nc2sc(C(=O)Nc3ccc4oc(C)nc4c3)cc21` [Compound 179] displayed a melting point of 117.2 °C. In addition, the MIC50 in series [1] is > 20 µM. Also, the MIC50 in series [2] was > 20 µM.
In turn, `Cc1nc2cc(NC(=O)c3cc4sc(N5CCNCC5)nc4s3)ccc2o1` [Compound 140] had a melting point of 235.3 °C. In addition, in series [1], the MIC50 was 1 to 20 µM (≈ 0.4 to 7.99 µg/mL). Besides, in series [2], the MIC50 was 1 to 20 µM (≈ 0.4 to 7.99 µg/mL).
In turn, `Cc1nc2cc(Cl)c(NC(=O)c3cc4sc(N5CCOCC5)nc4s3)cc2o1` [Compound 147] returned a melting point of 275.3 °C. For the same molecule, in series [1], the MIC50 is > 20 µM. Besides, the MIC50 in series [2] is > 20 µM.
Consider `Cc1nnc(-c2ccc(NC(=O)c3cc4sc(N5CCOCC5)nc4s3)cc2Cl)o1` [Compound 148], for which the melting point was found to be 248 °C. Besides, the MIC50 in series [1] is > 20 µM. In series [2], the MIC50 was > 20 µM.
In turn, `O=C(Nc1ccc(F)c(F)c1)c1cc2sc(N3CCCCC3)nc2s1` [Compound 36] returned a melting point of 218 °C. Further, the MIC50 in series [1] was < 1 µM. In series [2], the MIC50 is 1 to 20 µM (≈ 0.379 to 7.59 µg/mL).
`COc1ccc(NC(=O)c2ccc3nc(N4CCCCC4)ccc3c2)cc1` [Compound 17] returned a melting point of 209 °C. Moreover, in series [1], the MIC50 is > 20 µM. The MIC50 in series [2] lay in the range of 1 to 20 µM (≈ 0.361 to 7.23 µg/mL).
Taken in the same sequence, the figures for `CN(C)C(=O)C1CCN(c2nc3sc(C(=O)Nc4ccc5oc(-c6ccc(F)cc6)nc5c4)cc3s2)CC1` [Compound 171] were 323 °C, < 1 µM and > 20 µM.
With `Cc1nc2cc(NC(=O)c3cc4sc(N5CCOCC5)nc4s3)c(F)cc2o1` [Compound 181], the melting point was found to be 287 °C. Also, the MIC50 in series [1] is > 20 µM. The MIC50 in series [2] was > 20 µM.
On to `COc1ccc(NC(=O)c2cc3sc(N4CCN(C)CC4)nc3s2)cc1` [Compound 110], for which the melting point worked out at 219.8 °C. The MIC50 in series [1] is < 1 µM. For the same molecule, in series [2], the MIC50 lay in the range of 1 to 20 µM (≈ 0.389 to 7.77 µg/mL).
`O=C(Nc1ccc(F)nc1)c1cc2sc(N3CCOCC3)nc2s1` [Compound 84] gave a melting point of 262.3 °C. Moreover, in series [1], the MIC50 is < 1 µM. Further, the MIC50 in series [2] is < 1 µM.
In the case of `Cc1cnc(-c2ccc(NC(=O)c3cc4sc(N5CCOCC5)nc4s3)cc2)o1` [Compound 154], the melting point was 287.3 °C. Moreover, the MIC50 in series [1] is < 1 µM. Also, the MIC50 in series [2] is < 1 µM.
Molecule `O=C(Nc1ccc(-c2ccccc2)cc1)c1cc2sc(N3CCCCC3)nc2s1` [Compound 39] showed a melting point of 231.1 °C. The MIC50 in series [1] is < 1 µM. Further, the MIC50 in series [2] is > 20 µM.
Taken in the same sequence, the figures for `CN(C)C(=O)C1CCN(c2nc3sc(C(=O)Nc4ccc5oc(CN6CCOCC6)nc5c4)cc3s2)CC1` [Compound 196] were 239 °C, 1 to 20 µM (≈ 0.555 to 11.1 µg/mL) and 1 to 20 µM (≈ 0.555 to 11.1 µg/mL).
Regarding `COc1ccc(OCCNC(=O)c2cc3sc(N4CCOCC4)nc3s2)cc1` [Compound 82], the melting point worked out at 172.1 °C. Moreover, in series [1], the MIC50 is 1 to 20 µM (≈ 0.42 to 8.39 µg/mL). Moreover, the MIC50 in series [2] was > 20 µM.
On to `COc1ccc(NC(=O)c2cc3sc(N4CCCCC4)nc3s2)cc1` [Compound 35], for which the melting point was 235 °C. In addition, in series [1], the MIC50 was < 1 µM. The MIC50 in series [2] is < 1 µM.
As to `COc1ccc(NC(=O)c2cc3sc(N4CCC(C(=O)N5CCOCC5)CC4)nc3s2)cc1` [Compound 125], the melting point was found to be 268 °C. In series [1], the MIC50 was < 1 µM. Also, in series [2], the MIC50 was < 1 µM.
`Cc1nnc(-c2ccc(NC(=O)c3cc4sc(N5CCOCC5)nc4s3)cc2)o1` [Compound 103] gave a melting point of 319.1 °C. Also, in series [1], the MIC50 is < 1 µM. In addition, the MIC50 in series [2] is < 1 µM.
`Cn1cnc2cc(NC(=O)c3cc4sc(N5CCOCC5)nc4s3)ccc21` [Compound 116]: the melting point worked out at 291 °C. The MIC50 in series [1] was in the range of 1 to 20 µM (≈ 0.4 to 7.99 µg/mL). For the same molecule, the MIC50 in series [2] was > 20 µM.
Molecule `COc1ncc(NC(=O)c2cc3sc(N4CCCCC4)nc3s2)cn1` [Compound 55] displayed a melting point of 219 °C. The MIC50 in series [1] was < 1 µM. In addition, in series [2], the MIC50 was > 20 µM.
With `O=C(Nc1ccc(Oc2ccccc2)cc1)c1cc2nc(N3CCCCC3)sc2s1` [Compound 15], the melting point worked out at 225.8 °C. Also, the MIC50 in series [1] is > 20 µM. Besides, in series [2], the MIC50 is > 20 µM.
Turning to `O=C1Cc2cc(NC(=O)c3cc4nc(N5CCCCC5)sc4s3)ccc2N1` [Compound 23], the melting point worked out at 260 °C. In addition, the MIC50 in series [1] is > 20 µM. The MIC50 in series [2] is > 20 µM.
For the molecule `CCN(Cc1ccc(OC)cc1)c1nc2sc(C(=O)Nc3ccc(OC)cc3)cc2s1` [Compound 114], the melting point is 112 °C. In addition, the MIC50 in series [1] is < 1 µM. Moreover, in series [2], the MIC50 fell in the range of 1 to 20 µM (≈ 0.454 to 9.07 µg/mL).
`Cc1nc2ccc(NC(=O)c3cc4sc(N5CCOCC5)nc4s3)cc2o1.Cl` [Compound 86] yielded a melting point of 272.2 °C. In addition, the “QIM (MIC50, uM)” value in series [1] is on record as “+++ (+++ indicates <1 uM)”. In addition, in series [2], the “QUM (MIC50, uM)” value is “+++ (+++ indicates <1 uM)”.
As for `COc1ccc(CCNC(=O)c2cc3nc(N4CCCCC4)sc3s2)cc1` [Compound 22], the melting point was determined as 188 °C. The MIC50 in series [1] lay within 1 to 20 µM (≈ 0.402 to 8.03 µg/mL). The MIC50 in series [2] was in the range of 1 to 20 µM (≈ 0.402 to 8.03 µg/mL).
`COc1cc(NC(=O)c2cc3nc(N4CCCCC4)sc3s2)cc(OC)c1` [Compound 4] gave a melting point of 231.2 °C. In addition, the MIC50 in series [1] is > 20 µM. Further, in series [2], the MIC50 is > 20 µM.
In turn, `O=C(Nc1ccc(F)cc1)c1cc2sc(N3CCOCC3)nc2s1` [Compound 99] came in with a melting point of 240 °C. Moreover, the MIC50 in series [1] was < 1 µM. The MIC50 in series [2] lay in the range of 1 to 20 µM (≈ 0.363 to 7.27 µg/mL).

For the origin of these results see patent publication US11279714B2, “Anti-infective compounds” (priority 2014, dated 2022).
